Target: T1, NMM-IIA (Homo sapiens, UniProt P35579)
T1 construct: endogenous in cells; host or cells: THP-1 cells
Test: NMM-IIA phosphorylation in THP-1 cells (IP, MS, flow cytometry)
Type: cell-based
Method: In general, cells were washed with ice-cold PBS and lysed on ice with lysis buffer (150 mM sodium chloride, 1% Nonidet P-40, 1% protease inhibitor mixture, 1 mM activated sodium orthovanadate, 50 mM Tris at pH 8.0) for 30 min. For immunoprecipitation (IP), 30 mM of pervanadate solution was prepared by mixing sodium orthovanadate with H2O2 for 15 min at room temperature. At least 1×10^7 THP-1 cells were treated with pervanadate with or without blebbistatin at 37° C. for 15 min. Cells were then washed, lysed, and whole-cleared lysate was mixed with anti-NMM-IIA antibody at 4° C. overnight, followed by incubation with Protein G (Invitrogen) for 1 h. For Western blot, whole lysate or IP proteins were separated on 4% to 12% SDS/PAGE gels (NuPAGE 4-12% Bis-Tris, Invitrogen). The proteins were then transferred to a polyvinylidene fluoride (PVDF) membrane with an iBlot Gel Transfer Device (Invitrogen), followed by blocking with 5% nonfat dry milk solution for 1 h. Incubation with primary antibodies was done at 4° C. overnight with 1:1,000β-actin, 1:250 pTyr, and 1:1,000 NMM-IIA antibodies. After washing, the membrane was incubated with 1:2,500 anti-rabbit and 1:1,000 anti-mouse HRP-conjugated IgG antibodies at room temperature for 1 h. […]

T1 sequence (P35579 2-1960 limits assumed): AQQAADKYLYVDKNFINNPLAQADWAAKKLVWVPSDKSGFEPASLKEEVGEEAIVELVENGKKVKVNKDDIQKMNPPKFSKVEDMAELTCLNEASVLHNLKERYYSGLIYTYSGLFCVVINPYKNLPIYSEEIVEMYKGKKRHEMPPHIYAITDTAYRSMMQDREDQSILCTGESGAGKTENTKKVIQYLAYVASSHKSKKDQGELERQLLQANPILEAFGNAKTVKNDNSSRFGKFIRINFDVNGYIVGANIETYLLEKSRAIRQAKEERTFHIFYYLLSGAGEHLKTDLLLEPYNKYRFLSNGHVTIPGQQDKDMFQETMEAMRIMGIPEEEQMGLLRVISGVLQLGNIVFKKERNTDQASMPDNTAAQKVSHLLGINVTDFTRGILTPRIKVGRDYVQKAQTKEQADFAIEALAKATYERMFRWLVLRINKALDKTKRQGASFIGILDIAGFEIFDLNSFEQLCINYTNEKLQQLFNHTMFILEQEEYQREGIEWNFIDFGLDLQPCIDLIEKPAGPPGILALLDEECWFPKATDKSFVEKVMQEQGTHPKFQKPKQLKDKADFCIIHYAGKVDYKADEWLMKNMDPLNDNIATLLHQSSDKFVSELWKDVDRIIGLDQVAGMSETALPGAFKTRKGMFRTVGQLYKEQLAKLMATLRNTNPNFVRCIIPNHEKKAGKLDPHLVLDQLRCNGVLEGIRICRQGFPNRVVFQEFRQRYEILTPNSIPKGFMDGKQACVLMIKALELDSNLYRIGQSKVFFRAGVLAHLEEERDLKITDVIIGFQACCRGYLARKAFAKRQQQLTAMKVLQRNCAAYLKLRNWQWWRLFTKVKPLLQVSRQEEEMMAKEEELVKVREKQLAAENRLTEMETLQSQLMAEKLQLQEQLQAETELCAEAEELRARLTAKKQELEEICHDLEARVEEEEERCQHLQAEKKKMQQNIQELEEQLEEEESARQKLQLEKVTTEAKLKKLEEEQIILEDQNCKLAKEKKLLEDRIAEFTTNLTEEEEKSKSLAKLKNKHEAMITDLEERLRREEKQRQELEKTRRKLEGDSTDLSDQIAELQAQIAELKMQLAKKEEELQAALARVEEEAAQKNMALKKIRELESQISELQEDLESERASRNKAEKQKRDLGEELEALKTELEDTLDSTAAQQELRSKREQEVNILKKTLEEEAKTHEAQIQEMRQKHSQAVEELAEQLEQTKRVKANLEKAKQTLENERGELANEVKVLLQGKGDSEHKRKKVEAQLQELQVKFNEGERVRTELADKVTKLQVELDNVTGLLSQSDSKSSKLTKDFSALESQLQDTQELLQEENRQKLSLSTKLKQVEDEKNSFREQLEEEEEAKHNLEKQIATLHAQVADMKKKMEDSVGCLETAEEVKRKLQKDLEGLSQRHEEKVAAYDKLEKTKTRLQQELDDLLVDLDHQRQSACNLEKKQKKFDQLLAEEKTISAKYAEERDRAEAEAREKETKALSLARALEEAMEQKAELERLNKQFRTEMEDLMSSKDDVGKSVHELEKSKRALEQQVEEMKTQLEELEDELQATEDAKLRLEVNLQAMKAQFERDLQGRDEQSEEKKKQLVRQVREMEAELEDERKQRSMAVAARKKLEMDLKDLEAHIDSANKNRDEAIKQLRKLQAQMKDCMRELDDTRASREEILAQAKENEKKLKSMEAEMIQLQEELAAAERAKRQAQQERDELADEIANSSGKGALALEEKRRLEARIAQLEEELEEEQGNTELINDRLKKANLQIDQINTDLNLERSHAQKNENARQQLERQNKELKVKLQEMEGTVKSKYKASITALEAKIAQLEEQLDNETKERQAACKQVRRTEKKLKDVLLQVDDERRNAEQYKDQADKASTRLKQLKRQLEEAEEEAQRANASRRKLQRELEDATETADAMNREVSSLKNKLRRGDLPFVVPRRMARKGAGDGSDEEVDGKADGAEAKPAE
T1 sequence (P60660 2-151 partner limits assumed): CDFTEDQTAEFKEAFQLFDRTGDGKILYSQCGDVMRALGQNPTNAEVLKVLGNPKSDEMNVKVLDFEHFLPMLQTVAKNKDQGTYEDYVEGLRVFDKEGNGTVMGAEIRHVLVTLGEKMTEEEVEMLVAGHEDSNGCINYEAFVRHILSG
T1 sequence (O14950 2-172 partner limits assumed): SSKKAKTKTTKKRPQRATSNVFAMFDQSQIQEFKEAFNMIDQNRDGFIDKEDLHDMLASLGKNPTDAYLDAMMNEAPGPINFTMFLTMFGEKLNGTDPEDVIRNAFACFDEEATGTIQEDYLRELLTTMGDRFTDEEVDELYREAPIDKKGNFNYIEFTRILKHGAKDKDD

Cc1ccc2c(c1)C(=O)C1(O)CCN(c3ccccc3)C1=N2 (racemic) [blebbistatin, (±)-blebbistatin]
pTyr levels (THP-1, basal and phosphatase-inhibited conditions): decreases pTyr levels | phospho-S1943 of NMM-IIA (THP-1, detergent-soluble monomer): increases phospho-S1943

From patent US9920295B2, “Bioreactor for isolation of rare cells and methods of use” (The Trustees of the University of Pennsylvania, priority 2012, dated 2018)
